Measured values as given in patent US20240246959A1, “BENZIMIDAZOLE DERIVATIVE AND PREPARATION METHOD THEREFOR AND MEDICAL USE THEREOF” (Shenzhen Salubris Pharmaceuticals Co., Ltd., priority 2020, published 2024).

What was measured:
human GLP-1 R = biological target: T1, human GLP-1 R (Homo sapiens, UniProt P43220); assay: cAMP signal activation in human GLP1R cells (hGLP1R-U2OS, HTRF); format: cell-based
T1 construct: expressed in transfected cells
Protocol: A cell line stably expressing human GLP1 R (hGLP1R-U2OS) was used in this experiment. The cells were cultured in a growth medium (complete medium, DMEM+10% FBS+500 μg/mL G418 (Promega)) in an incubator at 37° C. and has 5% CO2 saturated humidity.
hGLP1R-U2OS was inoculated into 384-well plate with 1.0×10^4 cells/well (5 μL) (cell working solution: DMEM+0.1% BSA+1 mM IBMX (available from Bide Pharmatech Ltd.)), and was placed in an incubator at 37° C. and held for 30 min. The compounds to be tested were diluted stage-by-stage with Stimulation Buffer 1 (1×) in the kit, and the diluted compounds were added to the culture plate with 5 μL/well. They were incubated in an incubator at 37° C. for 30 min. Then, 5 μL/well of cAMP-d2 prepared with Lysis & Detection buffer and 5 μL/well of Anti CAMP-Cryptate working solution were added successively, and they were incubated at room temperature for 60 min before detection.
The ratio of signal emitted by donor to […] in each well was calculated as follows: HTRF rate=signal at 665 nm/signal at 620 nm×104, and then the HTRF rate was converted into a reaction rate (%). The concentration-response curve of each Example compound was created by a 4-parameter equation as Y=Bottom+(Top−Bottom)/(1+10^((Log IC50−X)*HillSlope)), and the half maximal (50%) effective concentration (EC50) was calculated.

[1] = Pharmacokinetic study on rat; format: in vivo, SD rats; conditions: for F: 5 mg/kg p.o vs 1 mg/kg i.v; for AUC(0-t) / Cmax / clearance / half-life: male, Sprague-Dawley (SD), plasma
Source text: • SD rats: male, 180-250 g, purchased from Beijing Vital River Laboratory Animal Technology Co., Ltd. • Reagents: DMSO (dimethyl sulfoxide), PEG-400 (polyethylene glycol 400), physiological saline, heparin, acetonitrile, formic acid, and propranolol (internal standard), all of which are commercially available. • Instruments: Thermo Fisher Scientific LC-MS (U300 UPLC, TSQ QUANTUMN ULTRA triple quadrupole mass spectrometer).
A compound was weighed and dissolved in a DMSO-PEG-400-physiological saline (5:60:35, v/v/v) system. After the rats were administered with the compound intravenously or by gavage, 200 μL of venous blood samples were collected at 15 min, 30 min, 1 h, 2 h, 5 h, 7 h, and 24 h (for i.v. group an additional collection was performed at 5 min) in heparinized EP tubes respectively, which were centrifuged at 12,000 rpm for 2 min, and the plasma was frozen at −80° C. for further testing. A certain amount of the test substance was precisely weighed and dissolved in DMSO to obtain a stock solution with a concentration of 2 mg/mL. An appropriate amount of the stock solution of the compound was accurately pipetted and diluted with acetonitrile to prepare a standard series solution. 20 μL of each of the above standard series solution was accurately pipetted, added with 180 μL of blank plasma, and vortexed mixed to prepare plasma samples corresponding to plasma concentrations of 0.3, 1, 3, 10, 30, 100, 300, 1000, 3000 ng/mL. Two-sample analysis was performed for each concentration to establish a standard curve. 30 μL of plasma (for samples that are obtained at 5 min, 15 min, 30 min, and 1 h after intravenous administration, the plasma were diluted 10 times) was taken, added with 200 μL of a solution of internal standard propranolol in acetonitrile (50 ng/ml), and vortexed mixed. The mixture was then added with 100 μL of pure water, and vortexed and mixed again. It was centrifuged at 4000 rpm for 5 min, and the supernatant was collected for LC-MS analysis. LC-MS detection conditions were as follows. • Chromatographic column: Thermo Scientific HYPERSIL GOLD C-18 UPLC column, 100*2.1 mm, 1.7 μm. • Mobile phase: water (with 0.1% formic acid)-acetonitrile; gradient elution was performed according to the table below.
After blood drug concentrations was detected by LC-MS, WinNonlin 6.1 software was used to calculate pharmacokinetic parameters based on non-compartmental model.

T1 sequence (P43220 24-463): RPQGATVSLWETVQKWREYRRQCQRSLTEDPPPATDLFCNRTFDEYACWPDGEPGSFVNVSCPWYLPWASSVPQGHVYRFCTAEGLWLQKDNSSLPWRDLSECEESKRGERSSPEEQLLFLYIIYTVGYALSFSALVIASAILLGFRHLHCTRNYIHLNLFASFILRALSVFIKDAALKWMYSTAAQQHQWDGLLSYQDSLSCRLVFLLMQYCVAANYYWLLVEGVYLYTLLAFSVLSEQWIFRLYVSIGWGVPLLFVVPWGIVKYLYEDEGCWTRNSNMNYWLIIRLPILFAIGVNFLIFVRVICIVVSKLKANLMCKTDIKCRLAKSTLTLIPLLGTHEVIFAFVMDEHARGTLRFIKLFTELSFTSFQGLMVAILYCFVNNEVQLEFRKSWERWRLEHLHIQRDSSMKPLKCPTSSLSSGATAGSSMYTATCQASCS

Structure (SMILES): C[C@@H](c1nc2ccc(C(=O)O)cc2n1C[C@@H]1CCO1)N1CCC(c2cccc(OCc3ccc(Cl)cc3F)n2)CC1 [Example 1A, 2-((S)-1-(4-(6-((4-chloro-2-fluorobenzyl)oxy)pyridin-2-yl)piperidin-1-yl)ethyl)-1-(((S)-oxetan-2-yl)methyl)-1H-benzo[d]imidazol-6-carboxylic acid]
- EC50 (human GLP-1 R): 1.71 nM
- F [1]: 49.0%
- AUC(0-t) ([1]; iv, 1 mg/kg, i.v): 2430 ng·h/mL
- Cmax ([1]; iv, 1 mg/kg, i.v): 2310 ng/mL
- clearance ([1]; iv, 1 mg/kg, i.v): 6.88 mL/min/kg
- half-life ([1]; iv, 1 mg/kg, i.v): 173 min
- AUC(0-t) ([1]; po, 5 mg/kg, p.o): 5950 ng·h/mL
- Cmax ([1]; po, 5 mg/kg, p.o): 747 ng/mL
- half-life ([1]; po, 5 mg/kg, p.o): 204 min

Structure (SMILES): C[C@@H](c1nc2ccc(C(=O)O)cc2n1C[C@@H]1CCO1)N1CCC(c2cccc(OCc3ccc(C#N)cc3F)n2)CC1 [Example 2A, 2-((S)-1-(4-(6-((4-cyano-2-fluorobenzyl)oxy)pyridin-2-yl)piperidin-1-yl)ethyl)-1-(((S)-oxetan-2-yl)methyl)-1H-benzo[d]imidazol-6-carboxylic acid]
- EC50 (human GLP-1 R): 3.18 nM
- F [1]: 63.5%
- AUC(0-t) ([1]; iv, 1 mg/kg, i.v): 1250 ng·h/mL
- Cmax ([1]; iv, 1 mg/kg, i.v): 2330 ng/mL
- clearance ([1]; iv, 1 mg/kg, i.v): 13.3 mL/min/kg
- half-life ([1]; iv, 1 mg/kg, i.v): 42.6 min
- AUC(0-t) ([1]; po, 5 mg/kg, p.o): 3970 ng·h/mL
- Cmax ([1]; po, 5 mg/kg, p.o): 1290 ng/mL
- half-life ([1]; po, 5 mg/kg, p.o): 187 min

Structure (SMILES): C[C@@H](c1nc2ccc(C(=O)O)cc2n1C[C@@H]1CCO1)N1CCC(c2cccc(OCc3cc(F)ccc3F)n2)CC1 [Example 5, 2-((S)-1-(4-(6-((2,5-difluorobenzyl)oxy)pyridin-2-yl)piperidin-1-yl)ethyl)-1-(((S)-oxetan-2-yl)methyl)-1H-benzo[d]imidazol-6-carboxylic acid]
- EC50 (human GLP-1 R): 1.04 nM
- F [1]: 72.8%
- AUC(0-t) ([1]; iv, 1 mg/kg, i.v): 5770 ng·h/mL
- Cmax ([1]; iv, 1 mg/kg, i.v): 4730 ng/mL
- clearance ([1]; iv, 1 mg/kg, i.v): 2.88 mL/min/kg
- half-life ([1]; iv, 1 mg/kg, i.v): 232 min
- AUC(0-t) ([1]; po, 5 mg/kg, p.o): 21000 ng·h/mL
- Cmax ([1]; po, 5 mg/kg, p.o): 3470 ng/mL
- half-life ([1]; po, 5 mg/kg, p.o): 166 min

Structure (SMILES): C[C@@H](c1nc2ccc(C(=O)O)cc2n1C[C@@H]1CCO1)N1CCC(c2cccc(OCc3ccc4cnn(CC(F)F)c4c3)n2)CC1 [Example 8, 2-((S)-1-(4-(6-((1-(2,2-difluoroethyl)-1H-indazol-6-yl)methoxy)pyridin-2-yl)piperidin-1-yl)ethyl)-1-(((S)-oxetan-2-yl)methyl)-1H-benzo[d]imidazol-6-carboxylic acid]
- EC50 (human GLP-1 R): 10.3 nM

Structure (SMILES): C[C@@H](c1nc2ccc(C(=O)O)cc2n1C[C@@H]1CCO1)N1CCC(c2cccc(OCc3ccc4cnn(CC(F)(F)F)c4c3)n2)CC1 [Example 9, 1-(((S)-oxetan-2-yl)methyl)-2-((S)-1-(4-(6-((1-(2,2,2-trifluoroethyl)-1H-indazol-6-yl)methoxy)pyridin-2-yl)piperidin-1-yl)ethyl)-1H-benzo[d]imidazol-6-carboxylic acid]
- EC50 (human GLP-1 R): 3.48 nM

Structure (SMILES): C[C@@H](c1nc2ccc(C(=O)O)nc2n1C[C@@H]1CCO1)N1CCC(c2cccc(OCc3ccc4cnn(CC(F)F)c4c3)n2)CC1 [Example 11, 2-((S)-1-(4-(6-((1-(2,2-difluoroethyl)-1H-indazol-6-yl)methoxy)pyridin-2-yl)piperidin-1-yl)ethyl)-3-(((S)-oxetan-2-yl)methyl)-3H-imidazo[4,5-b]pyridin-5-carboxylic acid]
- EC50 (human GLP-1 R): 3.45 nM

Structure (SMILES): C[C@@H](c1nc2ccc(C(=O)O)cc2n1C[C@@H]1CCO1)N1CCC(c2cccc(OCc3ccc(Br)cc3F)n2)CC1 [Example 13, 2-((S)-1-(4-(6-((4-bromo-2-fluorobenzyl)oxy)pyridin-2-yl)piperidin-1-yl)ethyl)-1-(((S)-oxetan-2-yl)methyl)-1H-benzo[d]imidazol-6-carboxylic acid]
- EC50 (human GLP-1 R): 18.7 nM

Structure (SMILES): C[C@@H](c1nc2ccc(C(=O)O)nc2n1C[C@@H]1CCO1)N1CCC(c2cccc(OCc3ccc(C#N)cc3F)n2)CC1 [Example 15, 2-((S)-1-(4-(6-((4-cyano-2-fluorobenzyl)oxy)pyridin-2-yl)piperidin-1-yl)ethyl)-3-(((S)-oxetan-2-yl)methyl)-3H-imidazo[4,5-b]pyridin-5-carboxylic acid]
- EC50 (human GLP-1 R): 2.57 nM

Structure (SMILES): C[C@@H](c1nc2ccc(C(=O)O)nc2n1C[C@@H]1CCO1)N1CCC(c2cccc(OCc3ccc4cnn(CC(F)(F)F)c4c3)n2)CC1 [Example 17, 3-(((S)-oxetan-2-yl)methyl)-2-((S)-1-(4-(6-((1-(2,2,2-trifluoroethyl)-1H-indazol-6-yl)methoxy)pyridin-2-yl)piperidin-1-yl)ethyl)-3H-imidazo[4,5-b]pyridin-5-carboxylic acid]
- EC50 (human GLP-1 R): 2.92 nM

Structure (SMILES): C[C@@H](c1nc2ccc(C(=O)O)nc2n1C[C@@H]1CCO1)N1CCC(c2cccc(OCc3ccnc4cc(F)ccc34)n2)CC1 [Example 18, 2-((S)-1-(4-(6-((7-fluoroquinolin-4-yl)methoxy)pyridin-2-yl)piperidin-1-yl)ethyl)-3-(((S)-oxetan-2-yl)methyl)-3H-imidazo[4,5-b]pyridine-5-carboxylic acid]
- EC50 (human GLP-1 R): 2.66 nM

Structure (SMILES): C[C@@H](c1nc2ccc(C(=O)O)nc2n1C[C@@H]1CCO1)N1CCC(c2cccc(OCc3cccc4cc(F)cnc34)n2)CC1 [Example 19, 2-((S)-1-(4-(6-((3-fluoroquinolin-8-yl)methoxy)pyridin-2-yl)piperidin-1-yl)ethyl)-3-(((S)-oxetan-2-yl)methyl)-3H-imidazo[4,5-b]pyridin-5-carboxylic acid]
- EC50 (human GLP-1 R): 3.94 nM

Structure (SMILES): C[C@@H](c1nc2ccc(C(=O)O)cc2n1C[C@@H]1CCO1)N1CCC(c2cccc(OCc3ccc(Cl)cc3F)n2)C(O)C1 (stereo partly drawn) [Example 31, 2-((1S)-1-((3,4-trans)-4-(6-((4-chloro-2-fluorobenzyl)oxy)pyridin-2-yl)-3-hydroxypiperidin-1-yl)ethyl)-1-(((S)-oxetan-2-yl)methyl)-1H-benzo[d]imidazol-6-carboxylic acid]
- EC50 (human GLP-1 R): 14.4 nM

Structure (SMILES): C[C@@H](c1nc2ccc(C(=O)O)cc2n1C[C@@H]1CCO1)N1CCN(c2cccc(OCc3ccc(Cl)cc3F)n2)CC1 [Example 39A]
- EC50 (human GLP-1 R): 15.5 nM

Structure (SMILES): C[C@@H](c1nc2ccc(C(=O)O)cc2n1C[C@@H]1CCO1)N1CCN(c2ncc(F)c(OCc3ccc(C#N)cc3F)n2)CC1 [Example 42, 2-((S)-1-(4-(4-((4-cyano-2-fluorobenzyl)oxy)-5-fluoropyrimidin-2-yl)piperazin-1-yl)ethyl)-1-(((S)-oxetan-2-yl)methyl)-1H-benzo[d]imidazol-6-carboxylic acid]
- EC50 (human GLP-1 R): 12 nM

Structure (SMILES): C[C@@H](c1nc2ccc(C(=O)O)cc2n1C[C@@H]1CCO1)N1CCN(c2cc(C(F)(F)F)cc(OCc3ccc(C#N)cc3F)n2)CC1 [Example 44, 2-((S)-1-(4-(6-((4-cyano-2-fluorobenzyl)oxy)-4-(trifluoromethyl)pyridin-2-yl)piperazin-1-yl)ethyl)-1-(((S)-oxetan-2-yl)methyl)-1H-benzo[d]imidazol-6-carboxylic acid]
- F [1]: 57.3%
- AUC(0-t) ([1]; iv, 1 mg/kg, i.v): 2260 ng·h/mL
- Cmax ([1]; iv, 1 mg/kg, i.v): 4360 ng/mL
- clearance ([1]; iv, 1 mg/kg, i.v): 7.37 mL/min/kg
- half-life ([1]; iv, 1 mg/kg, i.v): 41.4 min
- AUC(0-t) ([1]; po, 5 mg/kg, p.o): 6470 ng·h/mL
- Cmax ([1]; po, 5 mg/kg, p.o): 1410 ng/mL
- half-life ([1]; po, 5 mg/kg, p.o): 174 min

Structure (SMILES): C[C@@H](c1nc2ccc(C(=O)O)cc2n1C[C@@H]1CCO1)N1CCN(c2cc(C#N)cc(OCc3ccc(C#N)cc3F)n2)CC1 [Example 45, 2-((S)-1-(4-(4-cyano-6-((4-cyano-2-fluorobenzyl)oxo)pyridin-2-yl)piperazin-1-yl)ethyl)-1-(((S)-oxetan-2-yl)methyl)-1H-benzo[d]imidazol-6-carboxylic acid]
- EC50 (human GLP-1 R): 24.6 nM
